Measurements as given in patent US20240059703A1 (AMGEN INC., priority 2021, published 2024).

Columns and labels:
[1] = tested on: A549 (human lung carcinoma) cells; experiment: Cell Viability Assay (CellTiter-Glo), A549; assay type: cell-based
Procedure, shortened: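 Luminescent ATP read-out (CellTiter-Glo) after 72 h compound treatment of cells seeded overnight at 1.67E+04 cells/mL in RPMI 1640, 10% FBS; signal relative to DMSO, IC50 by 4-parameter logistic model.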

KRAS G12C = KRAS G12C (Homo sapiens (Human), UniProt P01116, C118A/G12C); experiment: 2 h coupled exchange assay; assay type: biochemical; conditions: Avg 2 h Coupled exchange IC50, 2 h compound pre-incubation
Description: The term “2 h coupled exchange assay” or “20 h coupled exchange assay” as used herein refers to the assay described in the Section entitled “BIOLOGICAL EVALUATION.”

[2] = tested on: MIA PaCa-2 (human pancreatic carcinoma) cells; experiment: Cell Viability Assay (CellTiter-Glo), MIA PaCa-2; assay type: cell-based
Description: Serially-diluted compound or DMSO was added to the cells, and plates were incubated at 37° C., 5% CO2 for 72 h. Cell viability was measured using a CellTiter-Glo® Luminescent Cell Viability Assay kit (Promega) according to the manufacturer's protocol. The luminescence signal of treated samples was normalized to DMSO control, and data were analyzed using a 4-parameter logistic model to calculate IC50 values.

[3] = SOS-mediated nucleotide exchange

Chain of KRAS G12C (P01116 other isoform, or with tags, fused parts or gaps G12C/C118A): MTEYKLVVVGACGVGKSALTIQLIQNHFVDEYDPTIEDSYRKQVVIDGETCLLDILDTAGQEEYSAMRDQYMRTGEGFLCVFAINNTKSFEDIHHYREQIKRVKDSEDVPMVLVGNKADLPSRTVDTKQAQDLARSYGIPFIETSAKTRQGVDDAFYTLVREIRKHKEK

SMILES: C=CC(=O)N1CC2(CCN(c3nc4c(c(-c5c(C)ccc6[nH]ncc56)c3F)C[C@H]3C[C@@H]4C3(C)C)C2)C1 (single isomer, unassigned) [Example 14-73]
- IC50 ([1]; Homo sapiens, A549, 72 h): > 5000 nM
- IC50 (KRAS G12C): 10 nM
- IC50 ([2]; Homo sapiens, MIA PaCa-2, 72 h): 11 nM

SMILES: C=CC(=O)N1CC2(CCN(c3nc4cc(-c5scnc5C)cnc4c(-c4ccc(F)c(O)c4)c3C#N)C2)C1 [Example 20-22, 4-(4-fluoro-3-hydroxyphenyl)-7-(4-methyl-1,3-thiazol-5-yl)-2-(2-(2-propenoyl)-2,6-diazaspiro[3.4]octan-6-yl)-1,5-naphthyridine-3-carbonitrile]
- IC50 ([1]; Homo sapiens, A549, 72 h): 12100 nM
- IC50 (KRAS G12C): 371 nM
- IC50 ([2]; Homo sapiens, MIA PaCa-2, 72 h): 7480 nM

SMILES: C=CC(=O)N1CC2(CCN(c3nc4c(c(-c5ccccc5Cl)c3C#N)CCN(c3scnc3C)C4)C2)C1 (single isomer, unassigned) [Example 21-23, (M)-4-(2-chlorophenyl)-7-(4-methyl-1,3-thiazol-5-yl)-2-(2-(2-propenoyl)-2,6-diazaspiro[3.4]octan-6-yl)-5,6,7,8-tetrahydro-1,7-naphthyridine-3-carbonitrile]
- IC50 ([1]; 72 h): > 5000 nM
- IC50 (KRAS G12C): 114 nM
- IC50 ([2]; 72 h): 619 nM

SMILES: C=CC(=O)N1CC2(CCN(c3nc4c(c(-c5ccc(F)cc5F)c3C#N)CCN(C3CCCN(C)C3)C4)C2)C1 [Example 21-32, 4-(2,4-difluorophenyl)-7-((3R)-1-methyl-3-piperidinyl)-2-(2-(2-propenoyl)-2,6-diazaspiro[3.4]octan-6-yl)-5,6,7,8-tetrahydro-1,7-naphthyridine-3-carbonitrile|4-(2,4-difluorophenyl)-7-((3S)-1-methyl-3-piperidinyl)-2-(2-(2-propenoyl)-2,6-diazaspiro[3.4]octan-6-yl)-5,6,7,8-tetrahydro-1,7-naphthyridine-3-carbonitrile]
- IC50 ([1]; Homo sapiens, A549, 72 h): 8220 nM
- IC50 (KRAS G12C): 355 nM
- IC50 ([2]; Homo sapiens, MIA PaCa-2, 72 h): 1450 nM

SMILES: C=CC(=O)N1CC2(CCN(c3nc4c(c(-c5cc(O)cc6ccccc56)c3C#N)COC(C)(C)C4)C2)C1 [Example 13-41, 4-(3-hydroxy-1-naphthalenyl)-7,7-dimethyl-2-(2-(2-propenoyl)-2,6-diazaspiro[3.4]octan-6-yl)-7,8-dihydro-5H-pyrano[4,3-b]pyridine-3-carbonitrile]
- IC50 ([1]; Homo sapiens, A549, 72 h): > 5000 nM
- IC50 (KRAS G12C; [3]): 33 nM
- IC50 ([2]; Homo sapiens, MIA PaCa-2, 72 h): 190 nM

SMILES: C=CC(=O)N1CC2(CCN(c3nc4c(c(-c5c(C)ccc6[nH]ncc56)c3C#N)CCC(C)(C)C4)C2)C1 (single isomer, unassigned) [Example 1-10, (M)-7,7-dimethyl-4-(5-methyl-1H-indazol-4-yl)-2-(2-(2-propenoyl)-2,6-diazaspiro[3.4]octan-6-yl)-5,6,7,8-tetrahydro-3-quinolinecarbonitrile]
- IC50 ([1]; 72 h): 2910 nM
- IC50 (KRAS G12C; [3]): 6700 nM
- IC50 ([2]; 72 h): 2500 nM

SMILES: C=CC(=O)N1CC2(C1)CN(c1nc3c(c(-c4c(C)ccc5[nH]ncc45)c1C#N)CCC(C)(C)C3)CC2(F)F [Example 2-105, 2-(8,8-difluoro-2-(2-propenoyl)-2,6-diazaspiro[3.4]octan-6-yl)-7,7-dimethyl-4-(5-methyl-1H-indazol-4-yl)-5,6,7,8-tetrahydro-3-quinolinecarbonitrile]
- IC50 ([1]; Homo sapiens, A549, 72 h): 3420 nM
- IC50 (KRAS G12C; [3]): 91 nM
- IC50 ([2]; Homo sapiens, MIA PaCa-2, 72 h): 425 nM

SMILES: C=CC(=O)N1CC2(CCN(c3nc4c(c(-c5cc(O)ccc5C)c3C#N)[C@H]3CC[C@@H]4C3)C2)C1 (stereo in doubt) [Example 14-9, (1R,8S)-6-(5-hydroxy-2-methylphenyl)-4-(2-(2-propenoyl)-2,6-diazaspiro[3.4]octan-6-yl)-3-azatricyclo[6.2.1.0^2,7]undeca-2,4,6-triene-5-carbonitrile]
- IC50 ([1]; Homo sapiens, A549, 72 h): 10400 nM
- IC50 (KRAS G12C; [3]): 91 nM
- IC50 ([2]; Homo sapiens, MIA PaCa-2, 72 h): 569 nM

SMILES: C=CC(=O)N1CC2(CCN(c3nc4c(c(-c5c(C)ccc6[nH]ncc56)c3C#N)CC(C)(C)C4)[C@@H]2C)C1 (atropisomer, axis not shown; (P)) [Example 13-54, (P)-6,6-dimethyl-4-(5-methyl-1H-indazol-4-yl)-2-((5R)-5-methyl-2-(2-propenoyl)-2,6-diazaspiro[3.4]octan-6-yl)-6,7-dihydro-5H-cyclopenta[b]pyridine-3-carbonitrile]
- IC50 ([1]; Homo sapiens, A549, 72 h): > 5000 nM
- IC50 (KRAS G12C; [3]): 17 nM
- IC50 ([2]; Homo sapiens, MIA PaCa-2, 72 h): 58 nM

SMILES: C=CC(=O)N1CC2(CCN(c3nc4c(c(-c5cc(O)ccc5C)c3C#N)C[C@H]3C[C@@H]4C3(C)C)C2)C1 (single isomer, unassigned) [Example 2-69]
- IC50 ([1]; Homo sapiens, A549, 72 h): > 5000 nM
- IC50 (KRAS G12C; [3]): 15 nM
- IC50 ([2]; Homo sapiens, MIA PaCa-2, 72 h): 221 nM

SMILES: C=CC(=O)N1CC2(CCN(c3nc4c(c(-c5cccc6c(F)c(O)ccc56)c3C)COC(C)(C)C4)C2)C1 [Example 12-45, 1-(6-(4-(5-fluoro-6-hydroxy-1-naphthalenyl)-3,7,7-trimethyl-7,8-dihydro-5H-pyrano[4,3-b]pyridin-2-yl)-2,6-diazaspiro[3.4]octan-2-yl)-2-propen-1-one]
- IC50 ([1]; Homo sapiens, A549, 72 h): > 5000 nM
- IC50 (KRAS G12C; [3]): 760 nM
- IC50 ([2]; Homo sapiens, MIA PaCa-2, 72 h): > 5000 nM

SMILES: C=CC(=O)N1CC2(CCN(c3nc4c(c(-c5cc(O)ccc5Cl)c3C#N)CCN(c3scnc3C)C4)C2)C1 [Example 21-13, 4-(2-chloro-5-hydroxyphenyl)-7-(4-methyl-1,3-thiazol-5-yl)-2-(2-(2-propenoyl)-2,6-diazaspiro[3.4]octan-6-yl)-5,6,7,8-tetrahydro-1,7-naphthyridine-3-carbonitrile]
- IC50 ([1]; Homo sapiens, A549, 72 h): > 5000 nM
- IC50 (KRAS G12C): 14 nM
- IC50 ([2]; Homo sapiens, MIA PaCa-2, 72 h): 1070 nM

SMILES: C=CC(=O)N1CC2(CCN(c3nc4c(c(-c5cc(O)cc6ccccc56)c3F)COC(C)(C)C4)C2)C1 [Example 14-68, 1-(6-(3-fluoro-4-(3-hydroxy-1-naphthalenyl)-7,7-dimethyl-7,8-dihydro-5H-pyrano[4,3-b]pyridin-2-yl)-2,6-diazaspiro[3.4]octan-2-yl)-2-propen-1-one]
- IC50 ([1]; Homo sapiens, A549, 72 h): > 5000 nM
- IC50 (KRAS G12C): 50 nM
- IC50 ([2]; Homo sapiens, MIA PaCa-2, 72 h): 91 nM

SMILES: C=CC(=O)N1CC2(CCN(c3nc4c(c(-c5ncccc5C)c3C#N)CCC(c3scnc3C)=C4)C2)C1 (single isomer, unassigned) [Example 23-25, (P)-4-(3-methyl-2-pyridinyl)-7-(4-methyl-1,3-thiazol-5-yl)-2-(2-(2-propenoyl)-2,6-diazaspiro[3.4]octan-6-yl)-5,6-dihydro-3-quinolinecarbonitrile]
- IC50 ([1]; 72 h): > 5000 nM
- IC50 (KRAS G12C): 196 nM
- IC50 ([2]; 72 h): 480 nM

SMILES: C=CC(=O)N1CC2(CCN(c3nc4c(c(-c5c(C)ccc6[nH]ncc56)c3C#N)CCC4)C2)C1 [Example 1-3, 4-(5-methyl-1H-indazol-4-yl)-2-(2-(2-propenoyl)-2,6-diazaspiro[3.4]octan-6-yl)-6,7-dihydro-5H-cyclopenta[b]pyridine-3-carbonitrile]
- IC50 ([1]; Homo sapiens, A549, 72 h): 7420 nM
- IC50 (KRAS G12C; [3]): 154 nM
- IC50 ([2]; Homo sapiens, MIA PaCa-2, 72 h): 847 nM

SMILES: C=CC(=O)N1CC2(CCN(c3nc4c(c(-c5cc(O)cc(C)c5Cl)c3C)COC(C)(C)C4)C2)C1 [Example 12-1, 1-(6-(4-(2-chloro-5-hydroxy-3-methylphenyl)-3,7,7-trimethyl-7,8-dihydro-5H-pyrano[4,3-b]pyridin-2-yl)-2,6-diazaspiro[3.4]octan-2-yl)prop-2-en-1-one]
- IC50 ([1]; Homo sapiens, A549, 72 h): > 5000 nM
- IC50 (KRAS G12C; [3]): 94 nM
- IC50 ([2]; Homo sapiens, MIA PaCa-2, 72 h): 88 nM

SMILES: C=CC(=O)N1CC2(CCN(c3nc4cc(-c5scnc5C)c(C)cc4c(-c4ccccc4Cl)c3C#N)C2)C1 [Example 20-10, 2-(2-acryloyl-2,6-diazaspiro[3.4]octan-6-yl)-4-(2-chlorophenyl)-6-methyl-7-(4-methylthiazol-5-yl)quinoline-3-carbonitrile]
- IC50 ([1]; Homo sapiens, A549, 72 h): 6780 nM
- IC50 (KRAS G12C): 890 nM
- IC50 ([2]; Homo sapiens, MIA PaCa-2, 72 h): 5380 nM

SMILES: C=CC(=O)N1CC2(CCN(c3nc4c(c(-c5c(C)c(Cl)cc6cnn(C)c56)c3C#N)COC(C)(C)C4)C2)C1 [Example 14-92, 4-(5-chloro-1,6-dimethyl-1H-indazol-7-yl)-7,7-dimethyl-2-(2-(2-propenoyl)-2,6-diazaspiro[3.4]octan-6-yl)-7,8-dihydro-5H-pyrano[4,3-b]pyridine-3-carbonitrile]
- IC50 ([1]; Homo sapiens, A549, 72 h): > 5000 nM
- IC50 (KRAS G12C): 28 nM
- IC50 ([2]; Homo sapiens, MIA PaCa-2, 72 h): 9 nM

SMILES: C=CC(=O)N1CC2(C1)CN(c1nc3c(c(-c4c(C)ccc5[nH]ncc45)c1C#N)CCC(C)C3)CC2(F)F (stereo not drawn) [Example 2-5, 2-(8,8-difluoro-2-(2-propenoyl)-2,6-diazaspiro[3.4]octan-6-yl)-7-methyl-4-(5-methyl-1H-indazol-4-yl)-5,6,7,8-tetrahydro-3-quinolinecarbonitrile]
- IC50 ([1]; Homo sapiens, A549, 72 h): 6250 nM
- IC50 (KRAS G12C; [3]): 42 nM
- IC50 ([2]; Homo sapiens, MIA PaCa-2, 72 h): 943 nM

SMILES: C=CC(=O)N1CC2(CCN(c3nc4c(c(-c5ncccc5C)c3C#N)CCC(c3scnc3C)=C4)C2)C1 [Example 23-1, 4-(3-Methyl-2-pyridinyl)-7-(4-methyl-1,3-thiazol-5-yl)-2-(2-(2-propenoyl)-2,6-diazaspiro[3.4]octan-6-yl)-5,6-dihydro-3-quinolinecarbonitrile]
- IC50 ([1]; Homo sapiens, A549, 72 h): > 5000 nM
- IC50 (KRAS G12C): 178 nM
- IC50 ([2]; Homo sapiens, MIA PaCa-2, 72 h): 507 nM

SMILES: Cc1ccc2[nH]ncc2c1-c1c(C#N)c(N2CCC3(CN(C(=O)/C=C/C(F)F)C3)C2)nc2c1CCC(C)(C)C2 [Example 13-8, 2-(2-((2E)-4,4-difluoro-2-butenoyl)-2,6-diazaspiro[3.4]octan-6-yl)-7,7-dimethyl-4-(5-methyl-1H-indazol-4-yl)-5,6,7,8-tetrahydro-3-quinolinecarbonitrile]
- IC50 ([1]; Homo sapiens, A549, 72 h): 3370 nM
- IC50 (KRAS G12C; [3]): 44 nM
- IC50 ([2]; Homo sapiens, MIA PaCa-2, 72 h): 218 nM
